In patent US20240084305A1, “MODULATORS OF CELL PROLIFERATION AND USES THEREOF” (Kumquat Biosciences Inc., priority 2020, published 2024):

Experiments:
Format in all cases: cell-based
[1] = test system: A427, ASPC1, Panc04.03, Ls174T, Ls513, AGS and HEClA cancer cell lines (KRAS G12D mutation); test: 3D proliferation assay (ultra-low attachment plates), small molecule Kras12D inhibitor plus second inhibitor, Bliss independence model; details: for cell growth inhibition: across the cell line panel; for maximal cell growth inhibition, on average: average over cell line panel
[2] = test system: A427, ASPC1 and Ls513 cancer cell lines (KRAS G12D mutation); test: cell growth inhibition in 3D suspension culture after lentiviral shRNA KRAS knockdown plus inhibitor, Bliss independence model; details: for degree of synergy of cell growth inhibition (excess over Bliss): all cell lines tested
Source text: This study explores the inhibition of a variety types (e.g., Kras G12D driven tumor cells) of cancer cells using a combination of nucleic-acid based Kras12D inhibitor and SOS inhibitor. Cell lines utilized include A427, a non-small cell lung cancer (NSCLC), ASPC1, a pancreatic cancer, and Ls513, colorectal cancer cell line. All three cell lines contain a KRAS G12D mutation. The cancer cell lines were adherently cultured in vitro and transduced with lentiviral particles packaged with shRNAs targeting either KRAS or negative control gene Luciferase.
Amphotropic lentiviruses were produced by the co-transfection of 293FT cells and were packaged using the ViraPower lentiviral expression system (ThermoFisher Scientific). Lentiviral shRNA clones targeting luciferase (as sh-Ctrl) and KRAS were obtained from Sigma in the MISSION pLKO.1-puro vector with clone IDs as follows: shKRAS #1: TRCN0000033262, NM_033360.2-509s1c1, shKRAS #2: TRCN0000033260, NM_033360.2-407s1c1, and the Luciferase shRNA control plasmid DNA (Cat #SHC007, Sigma). Viral supernatants were filtered through a 0.45 µm filter and supplemented with […] of polybrene (Sigma) and added to 70% confluent cells pre-plated in six-well dishes. Plates were spinfected for 1 h under 600×g at 37° C. centrifugation. Cells were subsequently washed with PBS and allowed to rest 48 hours in fresh culture media at 37° C. Next, cells were reseeded as 3D suspensions (ultra-low adherent plates) into 384 well plates in RPMI medium containing 10% FBS. Approximately 24 hrs later, 10 uM SOS inhibitor as described herein or DMSO (as negative control) was added to the cell cultures for a period of about 5 days. […] The degree of synergy for the combination across cell lines was calculated by using the Bliss independence model. […] The greater the departure from Bliss indicates more profound synergy: <0 is no synergism, 0.05-0.1 is mild synergy, 0.1-0.2 moderate synergy, and >0.2 is robust synergy.
Amphotropic lentiviruses were produced in the same manner as described in the preceding Example 6. 1 uM SHP2 inhibitor as described herein or DMSO (as negative control) was added to the cell cultures for a period of about 5 days. […] The degree of synergy for the combination across cell lines was calculated by using the Bliss independence model. […] The greater the departure from Bliss indicates more profound synergy: <0 is no synergism, 0.05-0.1 is mild synergy, 0.1-0.2 moderate synergy, and >0.2 is robust synergy.
Amphotropic lentiviruses were produced in the same manner as described in the preceding Example 6. […] The concentration of the respective EGFR inhibitors utilized in this cell assay was chosen to be within the range corresponding to achievable exposures and pharmacokinetics of a recommended and clinically relevant doses applied in human. […] The degree of synergy for the combination across cell lines was calculated by using the Bliss independence model as exemplified in the preceding Example 6.
Amphotropic lentiviruses were produced in the same manner as described in the preceding Example 6. 3 nM of Trametinib or DMSO (negative control) was added to the cell cultures for a period of about 5 days. The concentration of the MEK inhibitor utilized in this cell assay was chosen to be within the range corresponding to achievable exposures and pharmacokinetics of a recommended and clinical relevant dose applied in human. […] The degree of synergy for the combination across cell lines was calculated by using the Bliss independence model as exemplified in the preceding Example 6.
Amphotropic lentiviruses were produced in the same manner as described in the preceding Example 6.

[3] = test system: A427, ASPC1, Panc04.03, Ls174T, Ls513, AGS and HEClA cancer cell lines (KRAS G12D mutation); test: 3D proliferation assay (ultra-low attachment plates), small molecule Kras12D inhibitor plus second inhibitor, Bliss independence model
Source text: This study explores the inhibition of a variety types of cancer cells (e.g., KRAS G12D driven tumor cells) using a combination of small molecule based Kras12D inhibitor and SOS inhibitor. Cell lines from multiple indications were utilized and include the A427 (a non-small cell lung cancer, “NSCLC”), ASPC1 and Panc04.03 (both pancreatic cancer), Ls174T and Ls513 (both colorectal cancer), AGS (a gastric cancer), and HEClA (an endometrial cancer cell line). All cell lines contain a KRAS G12D mutation. The seven cancer cell lines were cultured in vitro in a 3D proliferation assay where cells are grown in ultra-low attachment surface cell culture plates in RPMI medium containing ˜10% FBS. Cells were incubated with different concentrations of SOS inhibitor (e.g., 10 uM, 3 uM, or 1 uM) and with different concentrations of a Kras12D inhibitors (either Compound A, Compound B, or Compound C, e.g., 0.1 uM, 0.3 uM, 1.0 uM, 3.0 uM) for a period of 5 days. […] The degree of synergy for the combination across cell lines was calculated by using the Bliss independence model as described herein. […] The greater the departure from Bliss indicates more profound synergy: ≤0 indicates no synergism, 0.05-0.1 indicates mild synergy, 0.1-0.2 indicates moderate synergy, and >0.2 indicates robust synergy.
This study explores the inhibition of a variety types of cancer cells (e.g., KRAS G12D driven tumor cells) using a combination of small molecule based Kras12D inhibitor and SHP2 inhibitor. Cell lines from multiple indications were utilized and include the A427 (a non-small cell lung cancer, “NSCLC”), ASPC1 and Panc04.03 (both pancreatic cancer), Ls174T and Ls513 (both colorectal cancer), AGS (a gastric cancer), and HEClA (an endometrial cancer cell line). All cell lines contain a KRAS G12D mutation. The seven cancer cell lines were cultured in vitro in a 3D proliferation assay where cells are grown in ultra-low attachment surface cell culture plates in RPMI medium containing 10% FBS. Cells were incubated with different concentrations of SHP2 inhibitor (e.g., 10 uM, 3 uM, or 1 uM) and with different concentrations of a Kras12D inhibitors (either Compound A, Compound B, or Compound C, e.g., 0.1 uM, 0.3 uM, 1.0 uM, 3.0 uM) for a period of 5 days. […] The degree of synergy for the combination across cell lines was calculated by using the Bliss independence model as described in the preceding examples.
The study explores the inhibition of a variety types of cancer cells (e.g., KRAS G12D driven tumor cells) using a combination of small molecule based Kras12D inhibitor and EGFR inhibitor.

`Cc1nc(NC(=O)N2CCC[C@H]2C(N)=O)sc1-c1ccnc(C(C)(C)C(F)(F)F)c1` [BYL719] was tested, and the cell growth inhibition ([1]; PI3Ka inhibitor (BYL719) as single agent, across its concentration range (up to 10 uM)) was “no more than 88%”, the “maximal cell growth inhibition, on average” value ([1]; PI3Ka inhibitor (BYL719) as single agent) was “about 58%” and the cell growth inhibition ([2]; 0.3 uM PI3K-alpha inhibitor (BYL719) in combination with nucleic-acid based Kras12D inhibitor) was “up to 87%”. The “degree of synergy of cell growth inhibition (excess over Bliss)” value ([2]; 0.3 uM PI3K-alpha inhibitor (BYL719) in combination with nucleic-acid based Kras12D inhibitor, 5 days) was “little to moderate”.

With `C[C@@H]1OCC2(CCN(c3cnc(Sc4ccnc(N)c4Cl)c(N)n3)CC2)[C@@H]1N` [SHP2 inhibitor, (3S,4S)-8-(6-amino-5-((2-amino-3-chloropyridin-4-yl)thio)pyrazin-2-yl)-3-methyl-2-oxa-8-azaspiro[4.5]decan-4-amine] the “degree of synergy of cell growth inhibition (excess over Bliss)” value ([2]; 1 uM SHP2 inhibitor in combination with nucleic-acid based Kras12D inhibitor (shRNA KRAS), about 5 days) was “moderate (0.1-0.2 moderate synergy)”, the cell growth inhibition ([3]; SHP2 inhibitor as single agent, across its concentration range (up to 10 uM), across the cell line panel) was “no more than 75%” and the “maximal cell growth inhibition, on average” value ([3]; SHP2 inhibitor as single agent, average over cell line panel) was “about 36%”.

In the case of `Cc1c(C#N)cccc1[C@@H](C)Nc1nnc(C)c2cnc(N3CCOCC3)cc12` [SOS inhibitor], the “degree of synergy of cell growth inhibition (excess over Bliss)” value ([2]; 10 uM SOS inhibitor in combination with nucleic-acid based Kras12D inhibitor (shRNA KRAS), about 5 days) is reported as “robust (>0.2 is robust synergy)”, the cell growth inhibition ([3]; SOS inhibitor as single agent, across its concentration range (up to 10 uM), across the cell line panel) is reported as “no more than 50%” and the cell growth inhibition ([3]; SOS inhibitor tested alone (FIG. 12 cell lines)) is reported as “no significant cell growth inhibition”.

`CC(=O)Nc1cccc(-n2c(=O)n(C3CC3)c(=O)c3c(Nc4ccc(I)cc4F)n(C)c(=O)c(C)c32)c1` [Trametinib, trametinib] was tested, and the cell growth inhibition ([1]; MEK inhibitor as single agent, across its concentration range (up to 0.01 uM)) was “no more than 68%”, the “maximal cell growth inhibition, on average” value ([1]; MEK inhibitor as single agent) was “about 42%” and the inhibition at 0.003 µM ([2]; 3 nM Trametinib in combination with nucleic-acid based Kras12D inhibitor) was at most 89%. It also gave an inhibition at 0.003 µM ([2]; single agent, 3 nM Trametinib) of under 50%.

In the case of `CN(C)C/C=C/C(=O)Nc1cc2c(Nc3ccc(F)c(Cl)c3)ncnc2cc1O[C@H]1CCOC1` [afatinib], the cell growth inhibition ([1]; afatinib as single agent, across its concentration range (up to 1 uM)) is reported as “no more than 86%”, the inhibition at 0.1 µM ([2]; 0.1 uM in combination with nucleic-acid based Kras12D inhibitor, pancreatic, colorectal and NSCLC cell lines) is reported as at most 75% and the inhibition at 0.1 µM ([2]; 120 h, single agent, 0.1 uM, about 5 days) is reported as under 30%.

With `C#Cc1cccc(Nc2ncnc3cc(OCCOC)c(OCCOC)cc23)c1` [erlotinib] the inhibition at 3 µM ([2]; 3 uM in combination with nucleic-acid based Kras12D inhibitor, pancreatic, colorectal and NSCLC cell lines) was at most 75%, the inhibition at 3 µM ([2]; 120 h, single agent, 3 uM, about 5 days) was under 30% and the cell growth inhibition ([3]; erlotinib as single agent, across its concentration range (up to 10 uM), across the cell line panel) was “no more than 72%”. The “maximal cell growth inhibition response, on average” value ([3]; erlotinib as single agent, average over cell line panel) was “under 50%”.

For `CC(=O)c1c(C)c2cnc(Nc3ccc(N4CCNCC4)cn3)nc2n(C2CCCC2)c1=O` [palbociclib], the cell growth inhibition ([1]; CDK4/6 inhibitor (palbociclib) as single agent, across its concentration range (up to 1 uM)) was “no more than 81%”, the “maximal cell growth inhibition, on average” value ([1]; CDK4/6 inhibitor (palbociclib) as single agent) was “about 48%” and the cell growth inhibition ([2]; 0.3 uM CDK4/6 inhibitor (Palbociclib) in combination with nucleic-acid based Kras12D inhibitor) was “up to 79%”.
